Patent US9694016B2 (Novartis AG, priority 2013, dated 2017)

target: b-Raf (V600E) (Homo sapiens (Human), UniProt P15056, V600E); conditions: read-out: b-Raf IC-50
Sequence (P15056 whole entry V600E): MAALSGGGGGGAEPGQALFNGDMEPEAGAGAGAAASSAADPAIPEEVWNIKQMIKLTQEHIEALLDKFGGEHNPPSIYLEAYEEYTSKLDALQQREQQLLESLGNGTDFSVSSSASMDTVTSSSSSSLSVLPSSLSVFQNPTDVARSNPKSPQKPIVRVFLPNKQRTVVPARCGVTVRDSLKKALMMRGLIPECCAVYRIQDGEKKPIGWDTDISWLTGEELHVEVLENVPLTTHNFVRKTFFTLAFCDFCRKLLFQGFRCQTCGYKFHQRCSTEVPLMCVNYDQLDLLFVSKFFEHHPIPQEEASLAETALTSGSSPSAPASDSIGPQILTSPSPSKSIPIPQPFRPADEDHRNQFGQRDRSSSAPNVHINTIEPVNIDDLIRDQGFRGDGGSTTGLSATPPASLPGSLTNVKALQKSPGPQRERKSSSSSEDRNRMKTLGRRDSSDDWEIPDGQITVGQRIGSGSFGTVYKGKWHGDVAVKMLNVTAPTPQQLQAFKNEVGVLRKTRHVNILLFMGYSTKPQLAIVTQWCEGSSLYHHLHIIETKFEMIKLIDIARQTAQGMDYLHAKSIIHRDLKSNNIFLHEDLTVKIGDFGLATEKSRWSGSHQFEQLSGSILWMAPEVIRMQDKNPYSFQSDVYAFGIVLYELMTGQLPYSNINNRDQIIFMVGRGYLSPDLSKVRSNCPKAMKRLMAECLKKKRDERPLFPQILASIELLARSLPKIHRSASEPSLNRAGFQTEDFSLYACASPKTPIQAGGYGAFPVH

Compound	IC50 [nM]
Cc1ccc(NC(=O)c2cc(CN(C)C)cc(C(F)(F)F)c2)cc1-c1cc(N2CCOCC2)c(=O)n(C)c1 [Example 173, 3-((dimethylamino)methyl)-N-(4-methyl-3-(1-methyl-5-morpholino-6-oxo-1,6-dihydropyridin-3-yl)phenyl)-5-(trifluoromethyl)benzamide]	9.2
COc1cc(-c2cc(NC(=O)c3cccc(C(F)(F)F)c3)ccc2C)nc(N2CCOCC2)c1 [Example 196, N-(3-(4-methoxy-6-morpholinopyridin-2-yl)-4-methylphenyl)-3-(trifluoromethyl)benzamide]	1.5

same assay, conditions: read-out: b-Raf IC-50; Table 2; AlphaScreen, 3 hours reaction

Compound	IC50 [nM]
Cc1ccc(C(=O)Nc2cccc(C(F)(F)F)c2)cc1-c1cc(N2CCOCC2)ccn1 [Example 64, 4-methyl-3-(4-morpholinopyridin-2-yl)-N-(3-(trifluoromethyl)phenyl)benzamide]	0.9
Cc1ccc(NC(=O)c2cccnn2)cc1-c1ccnc(N2CCOCC2)c1 [Example 67, N-(4-methyl-3-(2-morpholinopyridin-4-yl)phenyl)pyridazine-3-carboxamide]	500
Cc1ccc(NC(=O)c2cccc(S(C)(=O)=O)c2)cc1-c1ccnc(N2CCOCC2)c1 [Example 68, N-(4-methyl-3-(2-morpholinopyridin-4-yl)phenyl)-3-(methylsulfonyl)benzamide]	0.6
Cc1ccc(NC(=O)c2cnccn2)cc1-c1ccnc(N2CCOCC2)c1 [Example 70, N-(4-methyl-3-(2-morpholinopyridin-4-yl)phenyl)pyrazine-2-carboxamide]	200
Cc1ccc(NC(=O)c2ccnnc2)cc1-c1ccnc(N2CCOCC2)c1 [Example 72, N-(4-methyl-3-(2-morpholinopyridin-4-yl)phenyl)pyridazine-4-carboxamide]	600
Cc1ccc(NC(=O)c2ccnc(S(C)(=O)=O)c2)cc1-c1ccnc(N2CCOCC2)c1 [Example 73, N-(4-methyl-3-(2-morpholinopyridin-4-yl)phenyl)-2-(methylsulfonyl)isonicotinamide]	1.9
Cc1ncc(NC(=O)c2cccc(C(F)(F)F)c2)cc1-c1cc(N2CCOCC2)nc(N2CCOCC2)c1 [Example 77, N-(2-methyl-2′,6′-dimorpholino-[3,4′-bipyridin]-5-yl)-3-(trifluoromethyl)benzamide]	0.6
CC(F)(F)c1cc(C(=O)Nc2c[nH]c(=O)c(-c3ccnc(N4CCOCC4)c3)c2)ccn1 [Example 89, 2-(1,1-difluoroethyl)-N-(2′-morpholino-2-oxo-1,2-dihydro-[3,4′-bipyridin]-5-yl)isonicotinamide]	25000
Cc1ccc(NC(=O)c2cccc(C(F)(F)F)c2)cc1-c1cc(N2CCOCC2)ccn1 [Example 111, N-(4-methyl-3-(4-morpholinopyridin-2-yl)phenyl)-3-(trifluoromethyl)benzamide]	0.5
Cc1ncc(NC(=O)c2cccc(C(F)(F)F)c2)cc1-c1cnc(OC2CCOCC2)c(N2CCOCC2)c1 [Example 131, N-(2-methyl-5′-morpholino-6′-((tetrahydro-2H-pyran-4-yl)oxy)-[3,3′-bipyridin]-5-yl)-3-(trifluoromethyl)benzamide]	1.8
Cc1ncc(NC(=O)c2cccc(C(F)(F)F)c2)cc1-c1cnc(OC(C)C)c(N2CCOCC2)c1 [Example 134, N-(6′-isopropoxy-2-methyl-5′-morpholino-[3,3′-bipyridin]-5-yl)-3-(trifluoromethyl)benzamide]	2.4
Cc1ccc(C(=O)Nc2cccc(C(F)(F)F)c2)cc1-c1cc(N2CCOCC2)c(=O)n(C)c1 [Example 137, 4-methyl-3-(1-methyl-5-morpholino-6-oxo-1,6-dihydropyridin-3-yl)-N-(3-(trifluoromethyl)phenyl)benzamide]	7.1
Cc1ncc(NC(=O)c2cccc(C(F)(F)F)c2)cc1-c1cc(N2CCOCC2)c(=O)n(C)c1 [Example 138, N-(1′,2-dimethyl-5′-morpholino-6′-oxo-1′,6′-dihydro-[3,3′-bipyridin]-5-yl)-3-(trifluoromethyl)benzamide]	4.7
Cc1ncc(NC(=O)c2ccnc(C(C)(C)C#N)c2)cc1-c1cc(N2CCOCC2)c(=O)n(C)c1 [Example 141, 2-(2-cyanopropan-2-yl)-N-(1′,2-dimethyl-5′-morpholino-6′-oxo-1′,6′-dihydro-[3,3′-bipyridin]-5-yl)isonicotinamide]	47.5
Cc1ncc(NC(=O)c2cccc(C(F)(F)F)c2)cc1-c1cnc(OCCO)c(N2CCOCC2)c1 [Example 145, N-(6′-(2-hydroxyethoxy)-2-methyl-5′-morpholino-[3,3′-bipyridin]-5-yl)-3-(trifluoromethyl)benzamide]	3
Cc1ccc(NC(=O)c2cccc(C(F)(F)F)c2)cc1-c1cc(N2CCOCC2)c(=O)n(CC#N)c1 [Example 147, N-(3-(1-(cyanomethyl)-5-morpholino-6-oxo-1,6-dihydropyridin-3-yl)-4-methylphenyl)-3-(trifluoromethyl)benzamide]	1
CCn1cc(-c2cc(NC(=O)c3ccnc(C(C)(C)C#N)c3)ccc2C)cc(N2CCOCC2)c1=O [Example 160, 2-(2-cyanopropan-2-yl)-N-(3-(1-ethyl-5-morpholino-6-oxo-1,6-dihydropyridin-3-yl)-4-methylphenyl)isonicotinamide]	10.6

Compound	IC50 [nM]
CCOc1ncc(-c2cc(NC(=O)c3ccnc(C(C)(C)C#N)c3)ccc2C)cc1N1CCOCC1 [Example 161, 2-(2-cyanopropan-2-yl)-N-(3-(6-ethoxy-5-morpholinopyridin-3-yl)-4-methylphenyl)isonicotinamide]	2.9
Cc1ccc(NC(=O)c2cccc(C(F)(F)F)c2)cc1-c1cc(N2CCOCC2)c(=O)n(C)n1 [Example 164, N-(4-methyl-3-(1-methyl-5-morpholino-6-oxo-1,6-dihydropyridazin-3-yl)phenyl)-3-(trifluoromethyl)benzamide]	1.7
Cc1ncc(NC(=O)c2ccnc(C(C)(C)C#N)c2)cc1-c1cc(N2CCOCC2)c(=O)n(C)n1 [Example 167, 2-(2-cyanopropan-2-yl)-N-(6-methyl-5-(1-methyl-5-morpholino-6-oxo-1,6-dihydropyridazin-3-yl)pyridin-3-yl)isonicotinamide]	53.4
Cc1ccc(NC(=O)c2ccnc(S(C)(=O)=O)c2)cc1-c1cc(N2CCOCC2)c(=O)n(C)c1 [Example 184, N-(4-methyl-3-(1-methyl-5-morpholino-6-oxo-1,6-dihydropyridin-3-yl)phenyl)-2-(methylsulfonyl)isonicotinamide]	3.1
Cc1ccc(NC(=O)c2cccc(C(F)F)c2)cc1-c1cc(N2CCOCC2)c(=O)n(C)n1 [Example 190, 3-(difluoromethyl)-N-(4-methyl-3-(1-methyl-5-morpholino-6-oxo-1,6-dihydropyridazin-3-yl)phenyl)benzamide]	2.2
Cc1ccc(NC(=O)c2ccnc(C(C)(C)C#N)c2)cc1-c1cc(N2CCOCC2)c(=O)n(C)n1 [Example 191, 2-(2-cyanopropan-2-yl)-N-(4-methyl-3-(1-methyl-5-morpholino-6-oxo-1,6-dihydropyridazin-3-yl)phenyl)isonicotinamide]	5.4
COC(=O)NCCn1cc(-c2cc(NC(=O)c3cccc(C(F)(F)F)c3)cnc2C)cc(N2CCOCC2)c1=O [Example 193, methyl(2-(2′-methyl-5-morpholino-6-oxo-5′-(3-(trifluoromethyl)benzamido)-[3,3′-bipyridin]-1(6H)-yl)ethyl)carbamate]	100
Cc1ccc(NC(=O)c2cccc(C(F)(F)F)c2)cc1-c1cnc(N2CCOCC2)s1 [Example 198, N-(4-methyl-3-(2-morpholinothiazol-5-yl)phenyl)-3-(trifluoromethyl)benzamide]	0.8
Cc1ncc(NC(=O)c2cccc(C(F)(F)F)c2)cc1-c1cnc(C#N)c(N2CCOCC2)c1 [Example 222, N-(6′-cyano-2-methyl-5′-morpholino-[3,3′-bipyridin]-5-yl)-3-(trifluoromethyl)benzamide]	3.8
Cc1ccc(NC(=O)c2ccnc(C(C)(C)C#N)c2)cc1-c1cnc(OC(F)F)c(N2CCOCC2)c1 [Example 223, 2-(2-cyanopropan-2-yl)-N-(3-(6-(difluoromethoxy)-5-morpholinopyridin-3-yl)-4-methylphenyl)isonicotinamide]	2.2
Cc1ncc(NC(=O)c2cccc(C(F)(F)F)c2)cc1-c1cnc(OC(F)F)c(N2CCOCC2)c1 [Example 224, N-(6′-(difluoromethoxy)-2-methyl-5′-morpholino-[3,3′-bipyridin]-5-yl)-3-(trifluoromethyl)benzamide]	2.7
Cc1ccc(NC(=O)c2ccnc(C(C)(C)O)c2)cc1-c1cnc(OC(F)F)c(N2CCOCC2)c1 [Example 226, N-(3-(6-(difluoromethoxy)-5-morpholinopyridin-3-yl)-4-methylphenyl)-2-(2-hydroxypropan-2-yl)isonicotinamide]	1.9
Cc1ncc(NC(=O)c2cccc(C(F)(F)F)c2)cc1-c1cnc(OCC(F)F)c(N2CCOCC2)c1 [Example 227, N-(6′-(2,2-difluoroethoxy)-2-methyl-5′-morpholino-[3,3′-bipyridin]-5-yl)-3-(trifluoromethyl)benzamide]	1.8
Cc1ncc(NC(=O)c2ccnc(C(C)(C)C#N)c2)cc1-c1cnc(OCC(F)F)c(N2CCOCC2)c1 [Example 228, 2-(2-cyanopropan-2-yl)-N-(6′-(2,2-difluoroethoxy)-2-methyl-5′-morpholino-[3,3′-bipyridin]-5-yl)isonicotinamide]	4.7
CCOc1ncc(-c2cc(NC(=O)c3cccc(S(C)(=O)=O)c3)ccc2C)cc1N1CCOCC1 [Example 229, N-(3-(6-ethoxy-5-morpholinopyridin-3-yl)-4-methylphenyl)-3-(methylsulfonyl)benzamide]	0.7
CCOc1ncc(-c2cc(NC(=O)c3cccc(-c4nnco4)c3)ccc2C)cc1N1CCOCC1 [Example 230, N-(3-(6-ethoxy-5-morpholinopyridin-3-yl)-4-methylphenyl)-3-(1,3,4-oxadiazol-2-yl)benzamide]	1.4
CCOc1ncc(-c2cc(NC(=O)c3cccc(C(F)F)c3)ccc2C)cc1N1CCOCC1 [Example 231, 3-(difluoromethyl)-N-(3-(6-ethoxy-5-morpholinopyridin-3-yl)-4-methylphenyl)benzamide]	0.4
